Experimental data taken from PubChem BioAssay AID1963960 (Molecular Pharmacology Branch, DTP, NCI, 2024).

Test system: MDA-MB-468 spheroids with HUVEC/MSC, viability
Experiment: Anticancer human tumor MDA-MB-468 cell line growth inhibition [PI3K];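 note: spheroids exposed to agents for seven days before readout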;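 for viability, T/C: 100% = DMSO vehicle control viability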
Settings: for IC50: curve of first compound; for viability, T/C: stronger effect = lower value
Summary of the method: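 Targeted small molecules plus PI3K inhibitors, half-log dose series from Cmax (default top 10 microM), were applied to heterotypic spheroids of cancer cells with HUVEC and MSCs. Viability indicated growth inhibition.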

[1] = second compound 0.0316 µM, first compound 0.0316 µM
[2] = second compound 0.0316 µM, first compound 0.1 µM
[3] = second compound 0.0316 µM, first compound 0.316 µM
[4] = second compound 0.0316 µM, first compound 1 µM
[5] = second compound 0.0316 µM, first compound 3.16 µM
[6] = second compound 0.0316 µM, first compound 10 µM
[7] = second compound 0.1 µM, first compound 0.0316 µM
[8] = second compound 0.1 µM, first compound 0.1 µM
[9] = second compound 0.1 µM, first compound 0.316 µM
[10] = second compound 0.1 µM, first compound 1 µM
[11] = second compound 0.1 µM, first compound 3.16 µM
[12] = second compound 0.1 µM, first compound 10 µM
[13] = second compound 0.316 µM, first compound 0.0316 µM
[14] = second compound 0.316 µM, first compound 0.1 µM
[15] = second compound 0.316 µM, first compound 0.316 µM
[16] = second compound 0.316 µM, first compound 1 µM
[17] = second compound 0.316 µM, first compound 3.16 µM
[18] = second compound 0.316 µM, first compound 10 µM
[19] = second compound 1 µM, first compound 0.0316 µM
[20] = second compound 1 µM, first compound 0.1 µM
[21] = second compound 1 µM, first compound 0.316 µM
[22] = second compound 1 µM, first compound 1 µM
[23] = second compound 1 µM, first compound 3.16 µM
[24] = second compound 1 µM, first compound 10 µM
[25] = second compound 0.00316 µM, first compound 0.0316 µM
[26] = second compound 0.00316 µM, first compound 0.1 µM
[27] = second compound 0.00316 µM, first compound 0.316 µM
[28] = second compound 0.00316 µM, first compound 1 µM
[29] = second compound 0.00316 µM, first compound 3.16 µM
[30] = second compound 0.00316 µM, first compound 10 µM
[31] = second compound 0.01 µM, first compound 0.0316 µM
[32] = second compound 0.01 µM, first compound 0.1 µM
[33] = second compound 0.01 µM, first compound 0.316 µM
[34] = second compound 0.01 µM, first compound 1 µM
[35] = second compound 0.01 µM, first compound 3.16 µM
[36] = second compound 0.01 µM, first compound 10 µM

CNC(=O)c1ccc(N2C(=S)N(c3ccc(C#N)c(C(F)(F)F)c3)C(=O)C2(C)C)cc1F + CC(Nc1ncnc2nc[nH]c12)c1cc2cccc(Cl)c2c(=O)n1-c1ccccc1 was tested, and the IC50 (second compound 0.0316 µM) was > 10000 nM, the IC50 (second compound 0.1 µM) was > 10000 nM and the IC50 (second compound 0.316 µM) was > 10000 nM. The IC50 (second compound 1 µM) was > 10000 nM, the IC50 (second compound 3.16 µM) was 7730 nM and the IC50 (second compound 10 µM) was < 31.6 nM. It also gave a viability, T/C [1] of 78.9%, a viability, T/C [2] of 80% and a viability, T/C [3] of 77.2%. For the same molecule, the viability, T/C [4] was 90.6%, the viability, T/C [5] was 89.7% and the viability, T/C [6] was 73.1%. It also gave a viability, T/C [7] of 88%, a viability, T/C [8] of 79.8% and a viability, T/C [9] of 73.4%. The viability, T/C [10] was 91.3%, the viability, T/C [11] was 81.1% and the viability, T/C [12] was 63.4%. The viability, T/C [13] was 72%, the viability, T/C [14] was 72.5% and the viability, T/C [15] was 71.5%. It also gave a viability, T/C [16] of 77%, a viability, T/C [17] of 70.7% and a viability, T/C [18] of 61.1%. For the same molecule, the viability, T/C [19] was 58.2%, the viability, T/C [20] was 64.5% and the viability, T/C [21] was 67.4%. It also gave a viability, T/C [22] of 75%, a viability, T/C [23] of 55.5% and a viability, T/C [24] of 56.3%. The viability, T/C (second compound 3.16 µM, first compound 0.0316 µM) was 52.6%, the viability, T/C (second compound 3.16 µM, first compound 0.1 µM) was 56.3% and the viability, T/C (second compound 3.16 µM, first compound 0.316 µM) was 53.4%. The viability, T/C (second compound 3.16 µM, first compound 1 µM) was 57.1%, the viability, T/C (second compound 3.16 µM, first compound 3.16 µM) was 56.8% and the viability, T/C (second compound 3.16 µM, first compound 10 µM) was 42.1%. The viability, T/C (second compound 10 µM, first compound 0.0316 µM) was 40.1%, the viability, T/C (second compound 10 µM, first compound 0.1 µM) was 35.8% and the viability, T/C (second compound 10 µM, first compound 0.316 µM) was 36.1%. It also gave a viability, T/C (second compound 10 µM, first compound 1 µM) of 38%, a viability, T/C (second compound 10 µM, first compound 3.16 µM) of 35.7% and a viability, T/C (second compound 10 µM, first compound 10 µM) of 26.9%.

For Cn1cnc2c(F)c(Nc3ccc(Br)cc3Cl)c(C(=O)NOCCO)cc21 + CC(Nc1ncnc2nc[nH]c12)c1cc2cccc(Cl)c2c(=O)n1-c1ccccc1, the IC50 (second compound 0.0316 µM) was > 3000 nM, the IC50 (second compound 0.1 µM) was > 3000 nM and the IC50 (second compound 0.316 µM) was > 3000 nM. The IC50 (second compound 1 µM) was > 3000 nM, the IC50 (second compound 3.16 µM) was 1960 nM and the IC50 (second compound 10 µM) was < 9.49 nM. For the same molecule, the viability, T/C (second compound 0.0316 µM, first compound 0.00949 µM) was 88.8%, the viability, T/C (second compound 0.0316 µM, first compound 0.03 µM) was 90% and the viability, T/C (second compound 0.0316 µM, first compound 0.0949 µM) was 82.5%. It also gave a viability, T/C (second compound 0.0316 µM, first compound 0.3 µM) of 92.8%, a viability, T/C (second compound 0.0316 µM, first compound 0.949 µM) of 81.8% and a viability, T/C (second compound 0.0316 µM, first compound 3 µM) of 57.5%. The viability, T/C (second compound 0.1 µM, first compound 0.00949 µM) was 77%, the viability, T/C (second compound 0.1 µM, first compound 0.03 µM) was 86.9% and the viability, T/C (second compound 0.1 µM, first compound 0.0949 µM) was 101%. For the same molecule, the viability, T/C (second compound 0.1 µM, first compound 0.3 µM) was 89.1%, the viability, T/C (second compound 0.1 µM, first compound 0.949 µM) was 86.1% and the viability, T/C (second compound 0.1 µM, first compound 3 µM) was 58.4%. For the same molecule, the viability, T/C (second compound 0.316 µM, first compound 0.00949 µM) was 85.2%, the viability, T/C (second compound 0.316 µM, first compound 0.03 µM) was 83.8% and the viability, T/C (second compound 0.316 µM, first compound 0.0949 µM) was 75.6%. The viability, T/C (second compound 0.316 µM, first compound 0.3 µM) was 92.5%, the viability, T/C (second compound 0.316 µM, first compound 0.949 µM) was 90.3% and the viability, T/C (second compound 0.316 µM, first compound 3 µM) was 60.7%. It also gave a viability, T/C (second compound 1 µM, first compound 0.00949 µM) of 63.4%, a viability, T/C (second compound 1 µM, first compound 0.03 µM) of 66.1% and a viability, T/C (second compound 1 µM, first compound 0.0949 µM) of 76%. For the same molecule, the viability, T/C (second compound 1 µM, first compound 0.3 µM) was 73.9%, the viability, T/C (second compound 1 µM, first compound 0.949 µM) was 67.6% and the viability, T/C (second compound 1 µM, first compound 3 µM) was 58.8%. It also gave a viability, T/C (second compound 3.16 µM, first compound 0.00949 µM) of 58.2%, a viability, T/C (second compound 3.16 µM, first compound 0.03 µM) of 58.5% and a viability, T/C (second compound 3.16 µM, first compound 0.0949 µM) of 55.8%. For the same molecule, the viability, T/C (second compound 3.16 µM, first compound 0.3 µM) was 54.3%, the viability, T/C (second compound 3.16 µM, first compound 0.949 µM) was 66% and the viability, T/C (second compound 3.16 µM, first compound 3 µM) was 37.2%. It also gave a viability, T/C (second compound 10 µM, first compound 0.00949 µM) of 43.3%, a viability, T/C (second compound 10 µM, first compound 0.03 µM) of 41.2% and a viability, T/C (second compound 10 µM, first compound 0.0949 µM) of 37.6%. The viability, T/C (second compound 10 µM, first compound 0.3 µM) was 35.6%, the viability, T/C (second compound 10 µM, first compound 0.949 µM) was 29.4% and the viability, T/C (second compound 10 µM, first compound 3 µM) was 16.4%.

Molecule CC(C)NCC(C(=O)N1CCN(c2ncnc3c2C(C)CC3O)CC1)c1ccc(Cl)cc1 (stereo not drawn) + COc1c(OCCCN2CCOCC2)ccc2c3n(c(=NC(=O)c4cnc(N)nc4)nc12)CCN3 has an IC50 (second compound 0.00316 µM) of 910 nM, an IC50 (second compound 0.01 µM) of 762 nM and an IC50 (second compound 0.0316 µM) of 711 nM. The IC50 (second compound 0.1 µM) was 219 nM, the IC50 (second compound 0.316 µM) was < 31.6 nM and the IC50 (second compound 1 µM) was < 31.6 nM. For the same molecule, the viability, T/C [25] was 89.4%, the viability, T/C [26] was 79.2% and the viability, T/C [27] was 70.6%. It also gave a viability, T/C [28] of 47.7%, a viability, T/C [29] of 31.4% and a viability, T/C [30] of 24.2%. The viability, T/C [31] was 83.2%, the viability, T/C [32] was 81.3% and the viability, T/C [33] was 65.4%. The viability, T/C [34] was 44.5%, the viability, T/C [35] was 31.7% and the viability, T/C [36] was 23.6%. For the same molecule, the viability, T/C [1] was 76.3%, the viability, T/C [2] was 68.5% and the viability, T/C [3] was 66.4%. It also gave a viability, T/C [4] of 42.3%, a viability, T/C [5] of 28.9% and a viability, T/C [6] of 20.2%. For the same molecule, the viability, T/C [7] was 57.4%, the viability, T/C [8] was 55.2% and the viability, T/C [9] was 49.1%. For the same molecule, the viability, T/C [10] was 34.7%, the viability, T/C [11] was 27.1% and the viability, T/C [12] was 14.7%. The viability, T/C [13] was 27.1%, the viability, T/C [14] was 27% and the viability, T/C [15] was 24.5%. It also gave a viability, T/C [16] of 21.2%, a viability, T/C [17] of 15.1% and a viability, T/C [18] of 9.47%. It also gave a viability, T/C [19] of 4.25%, a viability, T/C [20] of 3.87% and a viability, T/C [21] of 2.81%. For the same molecule, the viability, T/C [22] was 3.58%, the viability, T/C [23] was 3.71% and the viability, T/C [24] was 2.69%.

With CNC(=O)c1ccc(N2C(=S)N(c3ccc(C#N)c(C(F)(F)F)c3)C(=O)C2(C)C)cc1F + COc1c(OCCCN2CCOCC2)ccc2c3n(c(=NC(=O)c4cnc(N)nc4)nc12)CCN3 the IC50 (second compound 0.00316 µM) was > 10000 nM, the IC50 (second compound 0.01 µM) was > 10000 nM and the IC50 (second compound 0.0316 µM) was > 10000 nM. The IC50 (second compound 0.1 µM) was > 10000 nM, the IC50 (second compound 0.316 µM) was < 31.6 nM and the IC50 (second compound 1 µM) was < 31.6 nM. The viability, T/C [25] was 85.4%, the viability, T/C [26] was 90.6% and the viability, T/C [27] was 88.5%. For the same molecule, the viability, T/C [28] was 101%, the viability, T/C [29] was 77.4% and the viability, T/C [30] was 70.8%. For the same molecule, the viability, T/C [31] was 81.9%, the viability, T/C [32] was 89.8% and the viability, T/C [33] was 87.8%. The viability, T/C [34] was 86.2%, the viability, T/C [35] was 79.7% and the viability, T/C [36] was 75.6%. It also gave a viability, T/C [1] of 82.4%, a viability, T/C [2] of 80.7% and a viability, T/C [3] of 82.8%. The viability, T/C [4] was 80.2%, the viability, T/C [5] was 82.5% and the viability, T/C [6] was 60.7%. It also gave a viability, T/C [7] of 52.7%, a viability, T/C [8] of 54.2% and a viability, T/C [9] of 59.5%. The viability, T/C [10] was 57%, the viability, T/C [11] was 59.9% and the viability, T/C [12] was 49.2%. For the same molecule, the viability, T/C [13] was 26.4%, the viability, T/C [14] was 27.4% and the viability, T/C [15] was 29.3%. For the same molecule, the viability, T/C [16] was 30.1%, the viability, T/C [17] was 29.6% and the viability, T/C [18] was 20.8%. It also gave a viability, T/C [19] of 4.39%, a viability, T/C [20] of 4.39% and a viability, T/C [21] of 4.07%. For the same molecule, the viability, T/C [22] was 4.23%, the viability, T/C [23] was 4.41% and the viability, T/C [24] was 2.21%.
